From the NIST ThermoML archive (doi:10.1021/je060124c)

Experiment: mn = molality of the nth substance listed, in mol/kg
Settings: Liquid, Capillary tube (Ostwald / Ubbelohde) method

[Cl-].[Li+] [lithium chloride] + O
viscosity [mPa·s]
Settings | 100 kPa | 10000 kPa | 20000 kPa | 40000 kPa
298.15 K, m1 = 0.0473 | 0.8971 | 0.8975 | 0.898 | 0.899
298.15 K, m1 = 0.1185 | 0.907 | 0.9075 | 0.908 | 0.909
298.15 K, m1 = 0.4814 | 0.9559 | 0.9562 | 0.957 | 0.958
298.15 K, m1 = 1.242 | 1.062 | 1.062 | 1.062 | 1.062
298.15 K, m1 = 2.621 | 1.289 | 1.29 | 1.291 | 1.292
298.15 K, m1 = 5.897 | 1.925 | 1.926 | 1.927 | 1.928
298.15 K, m1 = 7.863 | 2.535 | 2.536 | 2.537 | 2.538
298.15 K, m1 = 10.11 | 3.426 | 3.427 | 3.428 | 3.429
298.15 K, m1 = 12.7 | 5.414 | 5.416 | 5.418 | 5.42
298.15 K, m1 = 16.39 | 9.44 | 9.443 | 9.449 | 9.451
323.15 K, m1 = 0.0473 | 0.5513 | 0.5535 | 0.5551 | 0.5594
323.15 K, m1 = 0.1185 | 0.5573 | 0.5599 | 0.5618 | 0.5665
323.15 K, m1 = 0.4814 | 0.5884 | 0.5905 | 0.5927 | 0.5974
323.15 K, m1 = 1.242 | 0.6546 | 0.657 | 0.66 | 0.66
323.15 K, m1 = 2.621 | 0.7967 | 0.8 | 0.8028 | 0.8094
323.15 K, m1 = 5.897 | 1.206 | 1.21 | 1.215 | 1.224
323.15 K, m1 = 7.863 | 1.576 | 1.582 | 1.588 | 1.601
323.15 K, m1 = 10.11 | 2.116 | 2.123 | 2.131 | 2.147
323.15 K, m1 = 12.7 | 3.121 | 3.131 | 3.143 | 3.167
323.15 K, m1 = 16.39 | 5.173 | 5.19 | 5.209 | 5.249
348.15 K, m1 = 0.0473 | 0.381 | 0.3839 | 0.387 | 0.392
348.15 K, m1 = 0.1185 | 0.3851 | 0.388 | 0.391 | 0.3968
348.15 K, m1 = 0.4814 | 0.4072 | 0.4099 | 0.4128 | 0.4189
348.15 K, m1 = 1.242 | 0.4536 | 0.4575 | 0.462 | 0.462
348.15 K, m1 = 2.621 | 0.5541 | 0.5583 | 0.5621 | 0.5704
348.15 K, m1 = 5.897 | 0.8423 | 0.8484 | 0.8546 | 0.8667
348.15 K, m1 = 7.863 | 1.102 | 1.109 | 1.117 | 1.133
348.15 K, m1 = 10.11 | 1.466 | 1.476 | 1.487 | 1.507
348.15 K, m1 = 12.7 | 2.075 | 2.09 | 2.104 | 2.134
348.15 K, m1 = 16.39 | 3.293 | 3.316 | 3.339 | 3.386
370.2 K, m1 = 2.621 | 0.428 | 0.4328 | 0.4367 | 0.4449
370.4 K, m1 = 7.863 | 0.8587 | 0.867 | 0.8747 | 0.8907
370.45 K, m1 = 10.11 | 1.127 | 1.138 | 1.148 | 1.169
370.55 K, m1 = 12.7 | 1.53 | 1.544 | 1.559 | 1.587
370.7 K, m1 = 5.897 | 0.6536 | 0.6594 | 0.666 | 0.6781
371.25 K, m1 = 1.242 | 0.3462 | 0.3496 | 0.353 | 0.353
371.43 K, m1 = 0.4814 | 0.3099 | 0.313 | 0.3159 | 0.3217
372.06 K, m1 = 0.1185 | 0.2906 | 0.2912 | 0.2961 | 0.3015
372.33 K, m1 = 0.0473 | 0.2867 | 0.2894 | 0.2921 | 0.2975
372.4 K, m1 = 16.39 | 2.308 | 2.329 | 2.351 | 2.394
397.2 K, m1 = 5.897 | – | 0.5175 | 0.5233 | 0.5352
397.25 K, m1 = 12.7 | – | 1.162 | 1.175 | 1.202
397.6 K, m1 = 10.11 | – | 0.8792 | 0.8897 | 0.9092
398.95 K, m1 = 0.0473 | – | 0.2258 | 0.228 | 0.2335
399.2 K, m1 = 16.39 | – | 1.71 | 1.73 | 1.769
399.31 K, m1 = 7.863 | – | 0.6675 | 0.6758 | 0.6916
399.72 K, m1 = 2.621 | – | 0.3286 | 0.3327 | 0.3409
399.74 K, m1 = 0.1185 | – | 0.2261 | 0.2292 | 0.2339
399.75 K, m1 = 0.4814 | – | 0.24 | 0.243 | 0.2483
400.25 K, m1 = 1.242 | – | 0.2663 | 0.2696 | 0.2696
420.32 K, m1 = 0.4814 | – | 0.2047 | 0.2074 | 0.2127
421.03 K, m1 = 0.1185 | – | 0.1915 | 0.1941 | 0.199
421.96 K, m1 = 5.897 | – | 0.4291 | 0.435 | 0.4463
422.4 K, m1 = 1.242 | – | 0.2248 | 0.2281 | 0.2281
422.51 K, m1 = 10.11 | – | 0.7257 | 0.7354 | 0.7544
423.8 K, m1 = 12.7 | – | 0.9216 | 0.9345 | 0.9595
424.5 K, m1 = 16.39 | – | 1.333 | 1.351 | 1.386
424.51 K, m1 = 7.863 | – | 0.5562 | 0.564 | 0.5785
424.52 K, m1 = 0.0473 | – | 0.1848 | 0.1879 | 0.1928
425.84 K, m1 = 2.621 | – | 0.2701 | 0.2739 | 0.2812
446.9 K, m1 = 12.7 | – | 0.7773 | 0.7897 | 0.8123
447.18 K, m1 = 5.897 | – | 0.3666 | 0.3725 | 0.384
448.7 K, m1 = 10.11 | – | 0.6126 | 0.622 | 0.6415
448.75 K, m1 = 0.1185 | – | 0.1599 | 0.1628 | 0.1675
449.16 K, m1 = 0.0473 | – | 0.1575 | 0.16 | 0.1655
449.75 K, m1 = 16.39 | – | 1.091 | 1.108 | 1.141
449.82 K, m1 = 7.863 | – | 0.4786 | 0.4862 | 0.5006
450.7 K, m1 = 1.242 | – | 0.1876 | 0.1908 | 0.1908
450.74 K, m1 = 0.4814 | – | 0.1681 | 0.1707 | 0.1758
452.54 K, m1 = 2.621 | – | 0.2292 | 0.2329 | 0.2399
470.42 K, m1 = 1.242 | – | 0.1686 | 0.1717 | 0.1717
471.5 K, m1 = 5.897 | – | 0.322 | 0.3277 | 0.3385
471.52 K, m1 = 16.39 | – | 0.9346 | 0.951 | 0.982
472.03 K, m1 = 0.1185 | – | 0.1403 | 0.143 | 0.1477
472.3 K, m1 = 7.863 | – | 0.4267 | 0.4344 | 0.4487
472.52 K, m1 = 12.7 | – | 0.6626 | 0.6742 | 0.6964
473.7 K, m1 = 0.4814 | – | 0.1482 | 0.1509 | 0.1559
473.8 K, m1 = 10.11 | – | 0.5335 | 0.543 | 0.562
474.25 K, m1 = 0.0473 | – | 0.137 | 0.1394 | 0.1441
476.22 K, m1 = 2.621 | – | 0.2026 | 0.2064 | 0.2135
494.2 K, m1 = 1.242 | – | 0.1501 | 0.1532 | 0.1532
497.12 K, m1 = 2.621 | – | 0.1843 | 0.188 | 0.1951
497.2 K, m1 = 16.39 | – | 0.807 | 0.8237 | 0.8543
497.3 K, m1 = 0.4814 | – | 0.1323 | 0.135 | 0.1401
497.3 K, m1 = 7.863 | – | 0.3824 | 0.3901 | 0.4047
497.83 K, m1 = 0.0473 | – | 0.122 | 0.1245 | 0.1291
498.45 K, m1 = 0.1185 | – | 0.1233 | 0.1256 | 0.1303
499.3 K, m1 = 5.897 | – | 0.282 | 0.288 | 0.2988
499.52 K, m1 = 10.11 | – | 0.4719 | 0.4813 | 0.5
499.82 K, m1 = 12.7 | – | 0.5736 | 0.5853 | 0.6075
520.61 K, m1 = 1.242 | – | 0.1336 | 0.137 | 0.137
520.7 K, m1 = 7.863 | – | 0.3496 | 0.358 | 0.3733
521.37 K, m1 = 0.1185 | – | 0.111 | 0.1137 | 0.1187
521.42 K, m1 = 0.4814 | – | 0.119 | 0.1219 | 0.1271
522.35 K, m1 = 0.0473 | – | 0.1093 | 0.1125 | 0.1168
522.42 K, m1 = 2.621 | – | 0.1665 | 0.1706 | 0.1781
522.94 K, m1 = 10.11 | – | 0.4262 | 0.4365 | 0.4263
523.03 K, m1 = 12.7 | – | 0.5136 | 0.5262 | 0.5488
523.82 K, m1 = 16.39 | – | 0.7062 | 0.722 | 0.754
524.86 K, m1 = 5.897 | – | 0.2531 | 0.26 | 0.2718
545.92 K, m1 = 1.242 | – | 0.1203 | 0.124 | 0.124
547.5 K, m1 = 0.1185 | – | 0.0993 | 0.1018 | 0.1076
547.82 K, m1 = 16.39 | – | 0.6309 | 0.648 | 0.682
548.75 K, m1 = 0.4814 | – | 0.106 | 0.1091 | 0.1148
548.9 K, m1 = 12.7 | – | 0.4554 | 0.4693 | 0.494
549.25 K, m1 = 0.0473 | – | 0.0974 | 0.1009 | 0.106
549.32 K, m1 = 5.897 | – | 0.2338 | 0.2411 | 0.2537
550.4 K, m1 = 2.621 | – | 0.1487 | 0.1533 | 0.1615
573.1 K, m1 = 0.1185 | – | 0.0885 | 0.0922 | 0.0982
573.7 K, m1 = 5.897 | – | 0.2138 | 0.2229 | 0.239
573.81 K, m1 = 12.7 | – | 0.4053 | 0.422 | 0.449
573.86 K, m1 = 2.621 | – | 0.1352 | 0.1409 | 0.1502
574.03 K, m1 = 0.4814 | – | 0.0947 | 0.0986 | 0.1051
574.1 K, m1 = 0.0473 | – | 0.0871 | 0.0907 | 0.0966
574.21 K, m1 = 1.242 | – | 0.1064 | 0.111 | 0.111
574.23 K, m1 = 16.39 | – | 0.555 | 0.576 | 0.615
